Experiments:
[1] = Selectivity index, ratio of CC50 for human MT4 cells to EC50 for wild type HIV-1 IIIB infected in human MT4 cells; format: toxicity, cell-based; details: read-out: Selectivity Index
[2] = system: Human immunodeficiency virus 1; assay: Anti-HIV activity against wild type HIV-1 IIIB infected in human MT4 cells assessed as protection against virus-induced cytopathic effect incubated for 5 days by spectrophotometric based MTT assay; format: functional, organism-based; details: Human immunodeficiency virus 1, IIIB, MT4, 120 h
[3] = Selectivity index, ratio of CC50 for human MT4 cells to EC50 for HIV-2 ROD infected in human MT-4 cells; format: toxicity, cell-based; details: read-out: Selectivity Index
MT4 = assay: Cytotoxicity against human MT4 cells assessed as reduction in cell viability incubated for 5 days by spectrophotometric based MTT assay; format: functional; details: MT4, 120 h, time 5 day
[4] = system: Human immunodeficiency virus 2; assay: Anti-HIV activity against HIV-2 ROD infected in human MT-4 cells assessed as protection against virus-induced cytopathic effect incubated for 5 days by spectrophotometric based MTT assay; format: functional, organism-based; details: Human immunodeficiency virus 2, ROD, MT4, 120 h
[5] = Selectivity ratio of EC50 for wild type HIV-1 IIIB infected in human MT4 cells to EC50 for HIV-2 ROD infected in human MT-4 cells assessed as protection against virus-induced cytopathic effect incubated for 5 days by spectrophotometric based MTT assay; format: functional; details: time 5 day

| Compound | selectivity ratio [1] | EC50 [2] | selectivity ratio [3] | CC50 (MT4) | EC50 [4] | Ratio EC50 [5] |
| --- | --- | --- | --- | --- | --- | --- |
| CN(C(=O)[C@H](Cc1cc(F)cc(F)c1)NC(=O)C(=O)c1c[nH]c2ccccc12)c1ccc2scnc2c1 | < 0.01 | > 23.6 µM | < 0.01 | 23.6 µM | > 23.6 µM | – |
| Cc1[nH]c2ccccc2c1CC(=O)N[C@@H](Cc1cc(F)cc(F)c1)C(=O)N(C)c1ccc2scnc2c1 | 108 | 0.27 µM | 32.8 | 29.1 µM | 0.887 µM | 0.3 |
| CN(C(=O)[C@H](Cc1cc(F)cc(F)c1)NC(=O)Cc1c[nH]c2cccc(Br)c12)c1ccc2scnc2c1 | 133 | 0.166 µM | 20.5 | 22.2 µM | 1.08 µM | 0.15 |
| CN(C(=O)[C@H](Cc1cc(F)cc(F)c1)NC(=O)Cc1c[nH]c2cc(F)ccc12)c1ccc2scnc2c1 | 1500 | 0.0168 µM | 153 | 25.2 µM | 0.165 µM | 0.1 |
| CN(C(=O)[C@H](Cc1cc(F)cc(F)c1)NC(=O)Cc1c[nH]c2ccc(Br)cc12)c1ccc2scnc2c1 | 718 | 0.0326 µM | 137 | 23.4 µM | 0.171 µM | 0.19 |
| Cc1cc(C(F)(F)F)nn1CC(=O)N[C@@H](Cc1cc(F)cc(F)c1)C(=O)N(C)c1ccc2scnc2c1 | 543 | 0.223 µM | 133 | 121 µM | 0.912 µM | 0.24 |
| CN(C(=O)[C@H](Cc1cc(F)cc(F)c1)NC(=O)Cc1c[nH]c2ccc(Cl)cc12)c1ccc2scnc2c1 | 1450 | 0.0163 µM | 150 | 23.7 µM | 0.158 µM | 0.1 |
| Cc1cc(C)n(CC(=O)N[C@@H](Cc2cc(F)cc(F)c2)C(=O)N(C)c2ccc3scnc3c2)n1 | > 962 | 0.269 µM | > 84.5 | > 259 µM | 3.06 µM | 0.09 |
| CN(C(=O)[C@H](Cc1cc(F)cc(F)c1)NC(=O)Cc1c[nH]c2cccc(F)c12)c1ccc2scnc2c1 | 439 | 0.0536 µM | 47.3 | 23.5 µM | 0.498 µM | 0.11 |
| COc1ccc2[nH]cc(CC(=O)N[C@@H](Cc3cc(F)cc(F)c3)C(=O)N(C)c3ccc4scnc4c3)c2c1 | 3260 | 0.0225 µM | 460 | 73.2 µM | 0.159 µM | 0.14 |
| COc1ccc2[nH]c(C)c(CC(=O)N[C@@H](Cc3cc(F)cc(F)c3)C(=O)N(C)c3ccc4scnc4c3)c2c1 | 900 | 0.0328 µM | 81 | 29.5 µM | 0.365 µM | 0.09 |
| Cc1ccc2[nH]cc(CC(=O)N[C@@H](Cc3cc(F)cc(F)c3)C(=O)N(C)c3ccc4scnc4c3)c2c1 | 621 | 0.0424 µM | 137 | 26.4 µM | 0.193 µM | 0.22 |
| COc1ccc2c(CC(=O)N[C@@H](Cc3cc(F)cc(F)c3)C(=O)N(C)c3ccc4scnc4c3)c[nH]c2c1 | 300 | 0.127 µM | 170 | 38.2 µM | 0.224 µM | 0.57 |
| Cc1[nH]c2ccc(F)cc2c1CC(=O)N[C@@H](Cc1cc(F)cc(F)c1)C(=O)N(C)c1ccc2scnc2c1 | 147 | 0.17 µM | 33.4 | 24.9 µM | 0.745 µM | 0.23 |
| CN(C(=O)[C@H](Cc1cc(F)cc(F)c1)NC(=O)Cc1c[nH]c2ccccc12)c1ccc2scnc2c1 | 842 | 0.0396 µM | 153 | 33.4 µM | 0.218 µM | 0.18 |

From ChEMBL document CHEMBL6083251, “"Pseudosubstrate Envelope"/Free Energy Perturbation-Guided Design and Mechanistic Investigations of Benzothiazole HIV Capsid Modulators with High Ligand Efficiency” (J Med Chem, 2024)
